{"source": "ChEMBL document CHEMBL1201862", "about": "“PubChem BioAssay data set” (2004)", "assay_in_all_cases": "NCI tumour cell line growth inhibition, 48 h", "key": {"DMS-114": {"tested_on": "DMS-114"}, "KM-20L2": {"tested_on": "KM-20L2"}, "SF-539": {"tested_on": "SF-539"}, "SF-268": {"tested_on": "SF-268"}, "Hs-578T": {"tested_on": "Hs-578T"}}, "note": "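Where inhibition never reached the appropriate level, the endpoint shown equals the highest concentration tested. Otherwise, values were interpolated linearly from a five-concentration, 48-hour dose response in 96-well plates. GI50: concentration for 50% inhibition of growth.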 Active and inactive are the calls of the source. No stated cut-off is given here; in the data, active = GI50 up to about 1.1 µM and inactive = higher.", "data": [{"smiles": "COc1ccc(C2C(C(=O)O)=C(CO)Oc3cc4c(cc32)OCO4)cc1", "note": "(stereo not given)", "values": [{"measurement": "GI50", "setting": "DMS-114", "result": "> 100 µM (inactive)"}, {"measurement": "GI50", "setting": "KM-20L2", "result": "> 100 µM (inactive)"}]}, {"smiles": "NC(CCOCCP(=O)(O)O)C(=O)O", "note": "(stereo not given)", "values": [{"measurement": "GI50", "setting": "SF-539", "result": "> 100 µM (inactive)"}, {"measurement": "GI50", "setting": "SF-268", "result": "> 100 µM (inactive)"}, {"measurement": "GI50", "setting": "Hs-578T", "result": "> 100 µM (inactive)"}]}]}
